Data set [1] deals with MDA-MB-468 cells. As to the kind of experiment: Apoptosis induction (cleaved caspase 3, Western blotting). The conditions noted are these: 40 μM for 16 h.
Protocol: (§2) The cells were then processed for Western blotting exactly as described by us previously [16, 38]. […] We next evaluated the effects of the compounds on programed cell death (apoptosis) by determining their ability to induce cleaved caspase 3 in MDA-MB-468 cells.
(§3) Treatment of the human breast cancer (MDA-MB-468) cells and Western blotting were performed using the methods described by us previously [16, 38].
Data set [2] has as its system MDA-MB-468 cells. In words: MTT assay. The conditions noted are these: read-out: estimated IC50, inhibition of MDA-MB-468 cell growth.
Protocol: In addition, the ability of the compounds to inhibit tumor growth of MDA-MB-468 cells was determined by MTT assays. To this end, MDA-MB-468 cells were treated for 48 h with the compounds at 0, 0.5, 5 and 50 μM, and the cells were processed for MTT assays as described by us [39].
MDA-MB-468 cells were treated and processed for MTT, DAPI nuclear staining and phase imaging of cells as described previously by us [39].
Data set [3] has as its system Mcl-1 levels in MDA-MB-468 cells. As to the kind of experiment: Western blotting of Mcl-1 levels in intact breast cancer cells. To be noted: 40 μM for 16 h. In general terms: Immunoblotting shows a protein as a band on a membrane.
Protocol: as §2, §3
Data set [4] addresses T1, Mcl-1/Bim (Homo sapiens, UniProt Q07820). As to the kind of experiment: ELISA, disruption of Mcl-1 binding to Bim. To be noted: for fold more potent than 1 against Mcl-1/Bim: ELISA IC50 vs. marinopyrrole A (1); for IC50: ELISA. As for the experimental part: (§1) ELISAs were performed using a similar procedure as previously described. Briefly, 40 nM of biotinylated Bim BH3 peptide (Biomatik, Wilmington, DE, USA) in SuperBlock blocking buffer (Thermo Scientific Pierce, Rockford, IL, USA) was incubated in high-binding capacity streptavidin coated plates (Thermo Scientific Pierce, Rockford, IL, USA) for 2 h. Compounds were diluted in 120 µL of PBS containing 10 nM of GST-Mcl-1 or 10 nM GST-Bcl-xL in 1.5-mL tubes for 15 min. Wells were washed with wash buffer (PBS containing 0.05% Tween-20) and then 100 µL of the compound/GST-protein mixture was transferred to the Bim-containing wells. The plates were incubated for 2 h, and then, the wells were washed with wash buffer. HRP-conjugated anti-GST antibody (Bethyl Laboratories, Montgomery, TX, USA) was diluted 1:2000 in SuperBlock, and 100 µL were transferred to each well. The plate was incubated for 1 h, and then, the wells were washed with wash buffer followed by PBS. One hundred microliters of SureBlue TMB Microwell Peroxidase Substrate (VWR International, Radnor, PA, USA) was added to each well, and the plates were developed for 5–10 min. One hundred microliters of 1 N HCl was added to each well to stop the reaction, and the absorbance was read at 450 nm using a µQuant plate reader (Bio-Tek Instruments, Winooski, VT, USA).
For orientation: ELISA stands for enzyme-linked immunosorbent assay.

Data set [5] has as its target T2, Bcl-xL/Bim (Homo sapiens, UniProt Q07817). In words: ELISA, disruption of Bcl-xL binding to Bim. To be noted: for IC50: ELISA; for fold more potent than 1 against Bcl-xL/Bim: ELISA IC50 vs. marinopyrrole A (1). As for the experimental part: as §1
For data set [6], the target named is T3, Mcl-1 (Homo sapiens, UniProt Q07820).
T3 construct: Recombinant His-tagged Mcl-1 (residues 172–327) was purified as previously described; His; made in house
T3 sequence (Q07820 172-327): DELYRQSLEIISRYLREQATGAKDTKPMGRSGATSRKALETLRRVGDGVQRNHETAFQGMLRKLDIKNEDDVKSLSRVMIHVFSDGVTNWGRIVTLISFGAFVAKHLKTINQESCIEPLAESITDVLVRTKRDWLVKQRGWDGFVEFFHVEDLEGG
In words: Fluorescence-quenching direct binding assay (intrinsic Trp fluorescence). The conditions noted are these: 2.5 μM His-tagged Mcl-1 (residues 172–327), pH 7.6. The method, then:
To confirm direct binding of the compounds to Mcl-1, we have established a fluorescence-quenching assay based on the intrinsic Trp fluorescence of Mcl-1 [37].
Recombinant His-tagged Mcl-1 (residues 172–327) was purified as previously described. Intrinsic Trp fluorescence of Mcl-1 was measured with a TECAN M1000 plate reader at excitation wavelength of 285 nm and emission wavelengths of 310–400 nm. Serial dilutions of compound 9 (starting from 20 μM) in 20 mM K-phosphate pH 7.6, […] was used to assay compound binding using 2.5 μM of Mcl-1. Each condition is run at triplicate and binding constants are calculated by nonlinear regression analysis of dose response curves using Prism software 6.0 (Graphpad, La Jolla, CA, USA). Control experiments included titration of DMSO solvent and fluorescence quenching of denatured Mcl-1 in the presence of compound.

For data set [7] the following is noted: aqueous; stated without method or reference; cited from earlier work.
Data set [8] concerns the target T2, Bcl-xL/Bim. Details: method as in PMID 24608970. The conditions noted are these: ELISA; average ± SEM, n ≥ 3; data previously reported; cited from earlier work.
Data set [9] concerns the target T1, Mcl-1/Bim. To be noted: ELISA; average ± SEM, n ≥ 3; data previously reported; cited from earlier work.
Where [10] appears, read: average ± SEM, n ≥ 3, 10 nM GST-Mcl-1, 40 nM biotinylated Bim BH3 peptide, read-out: Mcl-1/Bim IC50.
[11] abbreviates: average ± SEM, n ≥ 3 (n = 2 where given), 10 nM GST-Bcl-xL, 40 nM biotinylated Bim BH3 peptide, read-out: Bcl-xL/Bim IC50.
Where [12] appears, read: read-out: IC50 Mcl-1/Bim disruption (abstract).
The mark [13] stands for this setting: read-out: IC50 Bcl-xL/Bim disruption (abstract).

Read-outs that look alike come from different tables or passages of the source.

T2 sequence (Q07817 whole entry): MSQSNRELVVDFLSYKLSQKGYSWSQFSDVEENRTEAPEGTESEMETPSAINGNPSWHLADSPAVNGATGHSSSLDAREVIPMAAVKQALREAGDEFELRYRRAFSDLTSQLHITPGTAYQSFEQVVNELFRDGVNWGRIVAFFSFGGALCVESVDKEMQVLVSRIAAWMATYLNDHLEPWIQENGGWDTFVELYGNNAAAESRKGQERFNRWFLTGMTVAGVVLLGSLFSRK
T1 sequence (Q07820 whole entry): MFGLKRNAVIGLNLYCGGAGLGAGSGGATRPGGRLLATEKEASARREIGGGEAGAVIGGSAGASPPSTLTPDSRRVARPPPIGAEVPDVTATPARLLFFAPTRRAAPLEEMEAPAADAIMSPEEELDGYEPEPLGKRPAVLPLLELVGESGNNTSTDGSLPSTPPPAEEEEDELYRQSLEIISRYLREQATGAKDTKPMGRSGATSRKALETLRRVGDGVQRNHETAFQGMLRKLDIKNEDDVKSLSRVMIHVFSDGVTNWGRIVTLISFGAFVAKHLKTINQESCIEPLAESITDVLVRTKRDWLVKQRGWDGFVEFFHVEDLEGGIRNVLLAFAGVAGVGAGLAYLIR

For `CCOC(=O)c1cc(Cl)c(Cl)n1-c1c(C(=O)c2ccccc2O)[nH]c(Cl)c1Cl` [Compound 11], the “induction of apoptosis (cleaved caspase 3)” value (“induction of apoptosis” for short) in [1] was “potently induced apoptosis”. Besides, the IC50 in [2] (Homo sapiens, MDA-MB-468, 48 h) was 2 µM. Moreover, the “decrease in the levels of Mcl-1” value in data set [3] was “highly potent”.

Regarding `CCOC(=O)CSc1ccc(C(=O)c2[nH]c(Cl)c(Cl)c2-n2c(C(=O)c3ccc(SCC(=O)OCC)cc3O)cc(Cl)c2Cl)c(O)c1` [Compound 3], in data set [4], the “fold more potent than 1 against Mcl-1/Bim” value was “five”. The IC50 in data set [4] (setting [10]) was 1.8 ± 0.3 µM; in [2] (Homo sapiens, MDA-MB-468, 48 h) it was 3 µM; in [5] (setting [11]), 1.2 ± 0.2 µM. For the same compound, in [1], the “induction of apoptosis” value is recorded as “potently induced apoptosis”. The “decrease in the levels of Mcl-1” value in data set [3] is “highly potent”.

`O=C(O)CS(=O)(=O)c1ccc(C(=O)c2[nH]c(Cl)c(Cl)c2-n2c(C(=O)c3ccc(S(=O)(=O)CC(=O)O)cc3O)cc(Cl)c2Cl)c(O)c1` [Compound 10]: the IC50 in data set [4] (setting [10]) is 63 ± 5.4 µM; in data set [2] (Homo sapiens, MDA-MB-468, 48 h), 20 µM; in data set [5] (setting [11]), > 100 µM. In addition, the “induction of apoptosis” value in data set [1] was “potently induced apoptosis”. The “decrease in the levels of Mcl-1” value in data set [3] is “highly potent”.

Regarding `COc1ccc(CSc2ccc(C(=O)c3[nH]c(Cl)c(Cl)c3-n3c(C(=O)c4ccc(SCc5ccc(OC)cc5)cc4O)cc(Cl)c3Cl)c(O)c2)cc1` [Compound 5], in data set [4], the “fold more potent than 1 against Mcl-1/Bim” value was found to be 12.7 fold. The IC50 was 0.7 ± 0.1 µM in [4] (setting [10]); 0.6 µM in [4] (setting [12]); 50 µM in data set [2] (Homo sapiens, MDA-MB-468, 48 h); 0.6 ± 0.1 µM in data set [5] (setting [11]); 0.7 µM in data set [5] (setting [13]). Besides, the “induction of apoptosis” value in data set [1] is “potently induced apoptosis”. Moreover, in data set [3], the “decrease in the levels of Mcl-1” value was “highly potent”. For the same compound, the “fold more potent than 1 against Bcl-xL/Bim” value in [5] stood at 27.3 fold.

Turning to `CCOC(=O)CS(=O)(=O)c1ccc(C(=O)c2[nH]c(Cl)c(Cl)c2-n2c(C(=O)c3ccc(S(=O)(=O)CC(=O)OCC)cc3O)cc(Cl)c2Cl)c(O)c1` [Compound 6], the IC50 is 37.3 ± 3.1 µM in data set [4] (setting [10]); 50 µM in data set [2] (Homo sapiens, MDA-MB-468, 48 h); > 100 µM in data set [5] (setting [11]). The “induction of apoptosis” value in [1] was “potently induced apoptosis”. In addition, in [3], the “decrease in the levels of Mcl-1” value was “highly potent”.

With `O=C(O)CSc1ccc(C(=O)c2[nH]c(Cl)c(Cl)c2-n2c(C(=O)c3ccc(SCC(=O)O)cc3O)cc(Cl)c2Cl)c(O)c1` [Compound 9], the IC50 is 6.1 ± 1.3 µM in data set [4] (setting [10]); 29 µM in data set [2] (Homo sapiens, MDA-MB-468, 48 h); > 100 µM in data set [5] (setting [11]). The “selectivity for Mcl-1/Bim over Bcl-xL/Bim” value in data set [4] (ratio of ELISA IC50 values) came to 16.4 fold. Further, the “induction of apoptosis” value in [1] was “weak”. In addition, the Kd – broadly, the concentration at which binding is half-saturated – in data set [6] was determined as 2.7 µM. In data set [3], the “decrease in the levels of Mcl-1” value was “moderately active”.

With `COc1ccc(CS(=O)(=O)c2ccc(C(=O)c3[nH]c(Cl)c(Cl)c3-n3c(C(=O)c4ccc(S(=O)(=O)Cc5ccc(OC)cc5)cc4O)cc(Cl)c3Cl)c(O)c2)cc1` [Compound 8], the IC50 in [4] (setting [10]) is 17.4 ± 3.1 µM; in data set [2] (Homo sapiens, MDA-MB-468, 48 h), 50 µM; in data set [5] (setting [11]), > 100 µM. For the same compound, in data set [1], the “induction of apoptosis” value is reported as “weak”. Further, the “decrease in the levels of Mcl-1” value in data set [3] is given as “moderately active”.

As to `O=C(c1ccccc1O)c1[nH]c(Cl)c(Cl)c1-n1c(C(=O)c2ccccc2O)cc(Cl)c1Cl` [Compound 1, marinopyrrole A, reference compound], the IC50 in data set [4] (setting [10]) was 25.1 ± 4.7 µM; in [2] (MTT, 48 h, compounds at 0, 0.5, 5 and 50 μM, estimated), 2 µM; in data set [8] it was 16.4 ± 3.3 µM; in data set [9], 8.9 ± 1 µM; in data set [5] (setting [11]), 96.6 µM. Moreover, the “induction of apoptosis” value in [1] is given as “potently induced apoptosis”. Besides, the solubility result in data set [7] is “poor solubility”. The “decrease in the levels of Mcl-1” value in data set [3] is given as “significant decrease”.

Regarding `O=C(c1ccc(SCc2ccccc2)cc1O)c1[nH]c(Cl)c(Cl)c1-n1c(C(=O)c2ccc(SCc3ccccc3)cc2O)cc(Cl)c1Cl` [Compound 4, (4,4′,5,5′-Tetrachloro-1′H-1,3′-bipyrrole-2,2′-diyl)bis(((2-hydroxy-4-benzylthio)phenyl)methanone)], the “fold more potent than 1 against Mcl-1/Bim” value in [4] is listed as 12.7 fold. The IC50 in data set [4] (setting [10]) is 0.7 ± 0.2 µM; in [4] (setting [12]) it was 0.6 µM; in data set [2] (Homo sapiens, MDA-MB-468, 48 h), 28 µM; in [5] (setting [11]), 0.6 ± 0.2 µM; in [5] (setting [13]), 0.7 µM. Also, the “induction of apoptosis” value in data set [1] was “potently induced apoptosis”. Further, in data set [3], the “decrease in the levels of Mcl-1” value is listed as “highly potent”. The “fold more potent than 1 against Bcl-xL/Bim” value in data set [5] came to 27.3 fold.

`O=C(c1ccc(S(=O)(=O)Cc2ccccc2)cc1O)c1[nH]c(Cl)c(Cl)c1-n1c(C(=O)c2ccc(S(=O)(=O)Cc3ccccc3)cc2O)cc(Cl)c1Cl` [Compound 7, (4,4′,5,5′-Tetrachloro-1′H-1,3′-bipyrrole-2,2′-diyl)bis(((2-hydroxy-4-benzylsulfonyl)phenyl)methanone)]: the IC50 in data set [4] (setting [10]) is 7.3 ± 1.4 µM; in [2] (Homo sapiens, MDA-MB-468, 48 h), 20 µM; in data set [5] (setting [11]) it was 69.3 ± 15.8 µM. Also, in data set [1], the “induction of apoptosis” value was “potently induced apoptosis”.

For `CCOC(=O)c1[nH]c(Cl)c(Cl)c1-n1c(C(=O)c2ccccc2O)cc(Cl)c1Cl` [Compound 12], the IC50 was 11.5 ± 1.9 µM in data set [4] (setting [10]); 16 µM in [2] (Homo sapiens, MDA-MB-468, 48 h); 17.6 ± 4.5 µM in data set [5] (setting [11]). The “induction of apoptosis” value in [1] was “weak”. Also, the “decrease in the levels of Mcl-1” value in data set [3] is on record as “moderately active”.
